The source of these data is US7595176B2, “Methods and reagents for quantitative analysis of Dehalococcoides species” (Georgia Tech Research Corporation, priority 2003, dated 2009).

The conditions of data set [1]: 25° C.; Gossett 1987; cited from earlier work.
Data set [2] has as its system VC-dechlorinating Dehalococcoides population in the Bachman culture. Kind of data set: Reductive dechlorination kinetics of chloroethenes in the VC-dechlorinating Bachman enrichment culture. The class given is cell-based, Dehalococcoides sp. As to conditions: for Dechlorination by the culture after prolonged enrichment with VC: chloroethene added alone, without DCEs or VC; for Ks (half-velocity coefficient) / kX (maximum aqueous dechlorination rate): pyruvate-fed cultures, Monod equation, nonlinear regression. As for the experimental part:
All experiments were carried out in serum bottles (160 ml nominal volume) containing 100 ml (final volume) of growth medium, which were sealed with black butyl rubber septa (Wheaton, Ochelata, Okla.). Anoxic, bicarbonate-buffered mineral salts medium was prepared, and was amended with pyruvate (10 mM), lactate (5 mM or 10 mM), acetate plus formate (5 mM each), or acetate (5 mM) as substrates. Löffler et al., Appl. Environ. Microbiol., 1997, 63:4982-4985. Unless indicated otherwise, H2 was only added to acetate-fed cultures at a partial pressure of 9 kPa. Routinely, L-cysteine and Na2S×9 H2O (0.2 mM each) were used to chemically reduce the medium. DL-dithiothreitol (DTT) was tested at 0.5 mM concentration. Titanium(III) (0.5 mM) was added from a filter-sterilized citrate solution after the medium had been autoclaved. Löffler et al., Appl. Environ. Microbial., 1996, 62:3809-3813; Zehnder et al., Science, 1976, 194:1165-1166. Gaseous VC was added as a single dose of 1 to 6 ml per serum bottle resulting in initial aqueous concentrations ranging from 0.27 to 1.6 mM. Other chloroethenes were added using Hamilton glass syringes (Hamilton, Reno, Nev.) to initial aqueous concentrations ranging from 0.2 to 0.5 mM. Biogenic cis-DCE was produced from PCE (0.5 mM) using a culture of ‘Desulfuromonas michiganensis’.
After complete dechlorination to cis-DCE (0.5 mM), the cultures were amended with pyruvate and inoculated with the VC-dechlorinating culture. New cultures were routinely seeded with a 2% (vol/vol) inoculum using plastic syringes. To minimize the contact of the inoculum with air present in the plastic of the syringes during transfers, the syringes were reduced with a sterile 0.5 mM aqueous sulfide solution for 5-10 min prior to transfers. Gaseous substrates were added with plastic syringes that had been previously flushed with H2- and O2-free N2.
All experiments were set up in triplicates, and all results were verified by at least one additional independent experiment. Culture bottles were incubated upside down at room temperature (22-25° C.) without agitation in the dark, unless indicated otherwise. Duplicate controls (no inoculum or autoclaved inoculum) accompanied each experiment. Ethene formation strictly depended on a viable inoculum, and loss of VC through the septum was negligible.
Chloroethenes were measured with a Hewlett Packard model 6890 gas chromatograph equipped with a HP-624 column (60 m length, 0.32 mm diameter, 1.8 μm film thickness) and a flame ionization detector (FID). Headspace samples of 100 μl were withdrawn with gas-tight 250 μl Hamilton glass syringes with Teflon-lined valves (model # 1725), and manually injected into a split injector operated at a split ratio of 2:1. All syringes were flushed with H2- and O2-free N2 gas to prevent contamination of the cultures with these gases. A temperature program that allowed the simultaneous analysis of all chloroethenes and ethene was described previously. He et al., Environ. Sci. Technol., 2002, 36: 3945-3952. Standards were prepared as described and 7-point calibration curves were established for all chloroethenes and ethene at room temperature. Gossett, Environ. Sci. Technol., 1987, 21: 202-208. The instrument detection limits for VC and ethene were 7.3 and 8.6 μM, respectively. For quantification of VC and ethene at different temperatures, concentrations of each compound were determined from 3-point calibration curves.
[formula] was used to describe the substrate reaction kinetics, where S is the chloroethene concentration, KS is the half-saturation coefficient, k is the maximum chloroethene dechlorination rate per unit of biomass, and X is the dechlorinating biomass concentration. It was assumed that Xlag was zero during the lag period due to the small inoculum transferred, and X remained constant during the phase of active dechlorination due to slow growth of the dechlorinating population(s). […]

SMILES strings stand for the structures.

`C=C(Cl)Cl` [1,1-DCE]: in data set [1], the “Dimensionless Henry coefficient” value was 1.069.
`ClC(Cl)=C(Cl)Cl` [PCE, Perchloroethene]: in data set [2], the “Dechlorination by the culture after prolonged enrichment with VC” value is given as “failed to dechlorinate”.
On to `ClC=C(Cl)Cl` [TCE, trichloroethene], for which, in data set [2], the “Dechlorination by the culture after prolonged enrichment with VC” value is recorded as “failed to dechlorinate”.
Consider `C=CCl` [VC, vinyl chloride], for which the VC dechlorination rate in data set [2] (acetate-enriched cultures) was 2.4 ± 0.5 µmol/L/day. In data set [2], the “Ks (half-velocity coefficient)” value was 5.8 ± 0.4 µM and the “kX (maximum aqueous dechlorination rate)” value is recorded as 54.4 ± 3.5 μMday^−1. Also, in data set [1], the “Dimensionless Henry coefficient” value was 1.137.
Regarding `CC1(C)S[C@@H]2[C@H](NC(=O)[C@H](N)c3ccccc3)C(=O)N2[C@H]1C(=O)O` [ampicillin, reference compound], in data set [2] (compared with cultures without the antibiotic), the “Effect on dechlorination rates of DCEs and VC to ethene” value is “about one third less”.
For the compound `Cl/C=C\Cl` [cis-DCE], in data set [2], the “Ks (half-velocity coefficient)” value turned out to be 8.9 ± 0.4 µM and the “kX (maximum aqueous dechlorination rate)” value turned out to be 23.1 ± 0.8 μMday^−1. Also, in data set [1], the “Dimensionless Henry coefficient” value is 0.167.
For the compound `Cl/C=C/Cl` [trans-DCE], in data set [2], the “Ks (half-velocity coefficient)” value came to 8.5 ± 0.3 µM and the “kX (maximum aqueous dechlorination rate)” value is 26.2 ± 0.7 μMday^−1. Moreover, in data set [1], the “Dimensionless Henry coefficient” value was 0.384.
